Experimental data published in US20050165085A1, “Polymorphic forms of tegaserod base and salts thereof” (priority 2003, published 2005).
Entries after “also recorded” stand apart in the source; their conditions may differ.

Experiments:
[1] = Physician's Desk Reference, 57th Ed., cited from earlier work
[2] = Heating of tegaserod maleate polymorphic forms, form after heating; assay type: physicochemical; settings: for Polymorphic transformation / thermal stability upon heating: statement in text, temperature not given
Text: X-Ray powder diffraction data were obtained using by method known in the art using a SCINTAG powder X-Ray diffractometer model X'TRA equipped with a solid state detector. Copper radiation of 1.5418 Å was used. A round aluminum sample holder with zero background was used. All peak positions are within ±0.2 degrees two theta.

[3] = Solubility of tegaserod acetate Form J compared with tegaserod base; assay type: physicochemical; settings: solvent not stated

CCCCCNC(=N)N/N=C/c1c[nH]c2ccc(OC)cc12.O=C(O)/C=C\C(=O)O [tegaserod as the maleate salt, Tegaserod maleate]
Solubility in ethanol ([1]; ethanol): slightly soluble
Solubility in water ([1]; water): very slightly soluble

CCCCCNC(=N)N/N=C/c1c[nH]c2ccc(OC)cc12.O=C(O)/C=C\C(=O)O [Form D, Tegaserod maleate]
Polymorphic transformation / thermal stability upon heating [2]: transformation to Form A; also recorded: transforms to Form A upon heating

CCCCCNC(=N)N/N=C/c1c[nH]c2ccc(OC)cc12.O=C(O)/C=C\C(=O)O [Form A, Tegaserod maleate, reference compound]
Polymorphic transformation / thermal stability upon heating [2]: exhibits thermal stability at higher temperatures

CCCCCNC(=N)N/N=C/c1c[nH]c2ccc(OC)cc12.O=C(O)/C=C\C(=O)O [Form C, Tegaserod maleate]
Polymorph form after heating ([2]; 2 hr. at 140 deg., listed as C): C > A
Polymorphic transformation / thermal stability upon heating ([2]; listed as C): transform to Form A upon heating

CCCCCNC(=N)N/N=C/c1c[nH]c2ccc(OC)cc12.O=C(O)/C=C\C(=O)O [Form B, Tegaserod maleate]
Polymorph form after heating ([2]; 2 hr. at 100 deg., listed as B (wet)): B > C + A
Polymorph form after heating ([2]; 2 hr. at 120 deg., listed as B (wet)): A > C
Polymorphic transformation / thermal stability upon heating [2]: transform to Form C upon heating before it transforms to Form A
Polymorphic transformation / thermal stability upon heating ([2]; listed as B): transform to Form A upon heating

CCCCCNC(=N)N/N=C/c1c[nH]c2ccc(OC)cc12.O=C(O)/C=C\C(=O)O [Form B1, Tegaserod maleate]
Polymorphic transformation upon heating, assumed from DSC curves ([2]; assumed from DSC curves, all forms show the melting peak of Form A): transform to Form A upon heating

Tegaserod acetate [Tegaserod acetate Form J]
Solubility relative to tegaserod base [3]: less soluble than tegaserod base

CCCCCNC(=N)N/N=C/c1c[nH]c2ccc(OC)cc12.O=C(O)/C=C\C(=O)O [Form B2, Tegaserod maleate]
Polymorph form after heating ([2]; 2 hr. at 80 deg.): B + C + A
Polymorph form after heating ([2]; 2 hr. at 100 deg.): B + C + A
Polymorph form after heating ([2]; 2 hr. at 120 deg.): C + A
Polymorph form after heating ([2]; 2 hr. at 140 deg., listed as B2): C + A
Polymorphic transformation / thermal stability upon heating [2]: transform to Form A upon heating
